Experiment [1] relates to PEG28-ITIM. Briefly: SPR of SHP-1 injected over immobilised PEG28-ITIM: binding constants (MPDPDE fit). Also on record: species or system mouse. Particulars: tethered SPR assay with active PTP domain. As to the method:
(§1) A construct expressing murine SHP-1 with an N-terminal 6× His tag was provided by M. H. Brown. Mutation of the SH2 domains was performed using a quick-change strategy. The mutations introduced were R30K and R33E for the N-terminal SH2 domain mutant and R136K for the C-terminal SH2 domain mutant previously shown to result in loss of binding ([6]). All peptides were ordered from PeptideSynthetics and were certified to be >95% pure. Peptides sequences were derived from the membrane-proximal ITIM sequence of mouse LAIR-1 receptor.
(§2) Experiments were performed on a Biacore 3000 instrument (GE Healthcare Life Sciences). All experiments were performed at 10°C and with a buffer flow rate of 10 μl/min. The buffer used was Hepes-buffered saline (HBS-EP; GE Healthcare Life Sciences), which contained 10 mM Hepes (pH 7.4), 150 mM NaCl, 3 mM EDTA, and 0.005% Surfactant P20.
(§3) A CM5 sensorchip was coupled with streptavidin to near saturation (typically between 4000 and 7000 RU) using the amine coupling kit (GE Healthcare Life Sciences) as described previously ([42]). After streptavidin was coupled, biotinylated peptides were injected to give the indicated concentrations in experimental flow cells, and excess biotin-binding sites were blocked with biotin in HBS-EP. The molar ratio of peptide to streptavidin was kept below 1:1 to ensure that peptide immobilization was random and not clustered on the tetravalent streptavidin molecules. Reference flow cells were treated with buffer and then blocked with biotin; pilot experiments using unphosphorylated control peptides in reference flow cells were indistinguishable from buffer-treated reference flow cells when injected with SHP-1. The chip surface was then conditioned with 5 × 5-min injections of HBS-EP. SHP-1 protein in HBS-EP with 1 mM dithiothreitol was then injected over reference and experimental flow cells in series for 5 min at the indicated concentrations. All SPR data were converted from the reference-subtracted data (in resonance units) to fraction bound by dividing the resonance units by the theoretical maximum resonance units expected if the experimental flow cell was saturated with bound SHP-1.
To determine the concentration of peptide in the assays, we first needed a conversion factor between the resonance units and the mass of peptide at the chip surface. We determined this conversion factor by injecting four concentrations of SHP-1 over a control flow cell on a CM5 chip and plotting the mass of SHP-1 injected against the raw resonance unit change. We repeated this on seven flow cells across four sensor chips to get an average slope of 149 ± 15 RU per g/liter (±SEM). […]

Experiment [2] concerns PEG28-ITIM. Put plainly: SPR of SHP-1 injected over immobilised PEG28-ITIM: tethered/solution catalysis and reach (MPDPDE fit). In kind it is biochemical, mouse. As to the method: as §1, §2, §3
To determine the concentration of peptide in the assays, we first needed a conversion factor between the resonance units and the mass of peptide at the chip surface. We determined this conversion factor by injecting four concentrations of SHP-1 over a control flow cell on a CM5 chip and plotting the mass of SHP-1 injected against the raw resonance unit change. We repeated this on seven flow cells across four sensor chips to get an average slope of 149 ± 15 RU per g/liter (±SEM). This constant, together with the molecular weight of the peptide, was used to convert between the resonance units of peptides immobilized and the molar concentration at the chip surface. For example, 48.5 RU of PEG28-ITIM (molecular weight, 3221) was immobilized to obtain [peptide] = 97.1 μM (Fig. 2A).
From the MPDPDE model–simulated SPR traces, one would predict that the kcat*(solution) (fig. S4, G and H) and L (fig. S4F) are likely to be very sensitive to small systematic errors in the SPR trace at longer time scales. Nonspecific binding and baseline drift are two well-known sources of such systemic errors that can produce artifacts at long time scales (see fig. S6A for examples). To exclude data affected by these artifacts, we propose a simple quality control check that greatly improves the accuracy of estimating L, kcat*(tethered) , and kcat*(solution) . As a measure of the signal-to-noise ratio at long time points, we took the resonance units 20 s after the injection was completed (noise) and divided it by the resonance units 20 s before the injection finished (signal). […] Data that had evidence of significant artifact were excluded from the study based on this criterion (red data points in fig. S6B). […]

With “SHP-1: murine SHP-1 tyrosine phosphatase with an N-terminal 6× His tag, expressed in E. coli”, in experiment [1], the “bivalent reactions (in words)” value is given as “no evidence for bivalent reactions”. In addition, the “L (reach parameter), SH2 variants” value in experiment [2] (SHP-1 variants over PEG28-ITIM, average fit Fig. 6B: WT n = 15, N-SH2 mutant n = 3, C-SH2 mutant n = 9) is recorded as 23.0 nm. Besides, the “share of time spent in open active conformation in solution” value in experiment [2] (assuming complete open transition on SH2 binding, kcat*(solution) = 0.05 kcat*(tethered)) was 5%. Also, in experiment [2] (average of all experiments Fig. 4C, n = 15, SEM printed ± 1.3 × 10^-2, wild-type SHP-1, PEG28-ITIM, 10°C, HBS-EP pH 7.4), the “k*cat (tethered)” value amounted to 11800 M⁻¹ s⁻¹. Further, the “L (reach parameter)” value in experiment [2] (average of all experiments Fig. 4C, n = 15, SEM ± 0.46, wild-type SHP-1, PEG28-ITIM, 10°C, HBS-EP pH 7.4) is listed as 23 nm. The “k*cat (solution)” value in experiment [2] (average of all experiments Fig. 4C, n = 15, SEM ± 1.15 × 10^-4, wild-type SHP-1, PEG28-ITIM, 10°C, HBS-EP pH 7.4) is 603 M⁻¹ s⁻¹. Further, the “increase in tethered over solution catalytic rate (allosteric activation)” value in experiment [2] (wild-type SHP-1, PEG28-ITIM, kcat*(tethered) versus kcat*(solution)) stood at 20 fold.

Values taken from article PMC5365251, “Biophysical assay for tethered signaling reactions reveals tether-controlled activity for the phosphatase SHP-1” (Science Advances, 2017).
